This is an account of results in patent publication US20060009918A1, “Methods and materials for enhancing the effects of protein modulators” (priority 2004, published 2006).

For the experiment, the target named is T1, carbonic anhydrase (bovine erythrocyte, Sigma Chemical Company, mixture of isozymes) (Bos taurus, UniProt P00921).
T1 construct: purchased Sigma Chemical Company; host or cells: bovine erythrocyte
In words: Binding constants by isothermal titration calorimetry. As for the experimental part: The binding constants of these complexes with carbonic anhydrase (bovine erythrocyte, Sigma Chemical Company, mixture of isozymes) were determined employing isothermal titration calorimetry (25 mM HEPES buffer, pH=7.0), and the results are presented in Table 1.
The titration procedures employing isothermal titration calorimetry were carried out employing the instrument ITC-4200 (Calscorp Inc., Provo, Utah). The reference cell (volume: 1.32 mL) was filled with 25 mM HEPES buffer, pH=7.0. Carbonic anhydrase was taken in the sample cell (1.32 mL, […] protein in 25 mM HEPES buffer, pH=7.0). The copper complexes (1 mM) were dissolved in the same buffer and were added to the enzyme solution (42×5 μL injections). Heats of dilution for the complexes were separately determined by injecting the solution of the complexes in buffer (taken in the sample cell). The heats of dilution were subtracted from the titration data files, and the resultant data were processed by the software provided by the manufacturer (Bind Works 3.0).
(ITC needs no label: the signal is the heat of the interaction.)

Where [1] appears, read: isothermal titration calorimetry, 25 mM HEPES buffer, pH=7.0.

T1 sequence (P00921 2-260 limits assumed): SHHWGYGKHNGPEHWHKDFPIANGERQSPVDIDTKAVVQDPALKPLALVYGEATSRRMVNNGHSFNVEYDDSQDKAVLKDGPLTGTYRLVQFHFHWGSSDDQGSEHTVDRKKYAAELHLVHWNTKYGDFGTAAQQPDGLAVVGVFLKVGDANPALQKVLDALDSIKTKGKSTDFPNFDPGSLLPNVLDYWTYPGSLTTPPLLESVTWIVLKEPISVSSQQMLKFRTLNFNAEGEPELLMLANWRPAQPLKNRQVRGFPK

For the molecule `NS(=O)(=O)c1ccccc1` [Control 6, Benzene sulfonamide, reference compound], the Kd (carbonic anhydrase, summary statement) is 120 µM. Besides, under setting [1], the Binding constant entry is reported as “(9.0 ± 0.1) × 10^3” and the Enthalpy was -31.2 ± 1.6 kcal/mol. In addition, the “affinity for the enzyme (in words)” value (titration with the enzyme) is “weak affinity”.

One may read the Kd as the constant that tells how readily two partners part at equilibrium.
